Results: PubChem BioAssay (NCI)
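How tested: cells in 96-well plates exposed to compound for 48 hours at five concentrations. GI50 = concentration required for 50% inhibition of growth. At the TGI there is no net growth.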

What was measured:
Test in all cases: NCI tumour cell line growth inhibition, 48 h
[1] = test system: SR leukemia
[2] = test system: MDA-MB-231 breast
[3] = test system: NCI-H460 lung
[4] = test system: HCT-116 colon
[5] = test system: SF-295 CNS
[6] = test system: SK-MEL-5 melanoma
[7] = test system: MOLT-4 leukemia
[8] = test system: HCT-15 colon
[9] = test system: MDA-MB-468 breast
[10] = test system: SF-539 CNS
[11] = test system: DU-145 prostate
[12] = test system: LOX IMVI melanoma
[13] = test system: NCI-H226 lung
[14] = test system: HS 578T breast
[15] = test system: SW-620 colon
[16] = test system: OVCAR-8 ovarian
[17] = test system: ACHN renal
[18] = test system: CAKI-1 renal
[19] = test system: NCI-H522 lung
[20] = test system: RXF 393 renal
[21] = test system: A549 NSCLC
[22] = test system: OVCAR-3 ovarian
[23] = test system: CCRF-CEM leukemia
[24] = test system: MDA-MB-435
[25] = test system: MCF7 breast
[26] = test system: 786-0 renal
[27] = test system: NCI/ADR-RES ovarian
[28] = test system: RPMI-8226 leukemia
[29] = test system: SF-268 CNS
[30] = test system: MALME-3M melanoma
[31] = test system: SK-OV-3 ovarian
[32] = test system: OVCAR-5 ovarian
[33] = test system: A498 renal
[34] = test system: HOP-62 NSCLC
[35] = test system: BT-549 breast
[36] = test system: HT29 colon
[37] = test system: TK-10 renal
[38] = test system: SK-MEL-28 melanoma
[39] = test system: EKVX NSCLC
[40] = test system: UACC-257 melanoma
[41] = test system: T-47D breast
[42] = test system: HL-60(TB) leukemia
[43] = test system: NCI-H23 lung
[44] = test system: SNB-75 CNS
[45] = test system: SNB-19 CNS
[46] = test system: U251 CNS
[47] = test system: SK-MEL-2 melanoma
[48] = test system: KM12 colon
[49] = test system: IGROV1 ovarian
[50] = test system: K-562 leukemia
[51] = test system: PC-3 prostate
[52] = test system: SN12C renal
[53] = test system: OVCAR-4 ovarian
[54] = test system: HCC-2998 colon
[55] = test system: HOP-92 NSCLC
[56] = test system: COLO 205 colon
[57] = test system: UO-31 renal
[58] = test system: UACC-62 melanoma
[59] = test system: M14 melanoma

For `C=C1CCC2C3(C)COC(c4cc(F)cc(F)c4)OC3CCC2(C)C1C/C=C1/C(=O)OCC1O` (stereo not drawn), the GI50 [1] was 2.08 µM, the TGI [1] was 5.23 µM and the GI50 [2] was 1.67 µM. For the same compound, the TGI [2] was 3.25 µM, the GI50 [3] was 1.62 µM and the TGI [3] was 3.2 µM. The GI50 [4] was 1.43 µM, the TGI [4] was 2.93 µM and the GI50 [5] was 1.56 µM. It also gave a TGI [5] of 2.98 µM, a GI50 [6] of 1.75 µM and a TGI [6] of 3.21 µM. For the same compound, the GI50 [7] was 2.58 µM, the TGI [7] was 7.52 µM and the GI50 [8] was 1.44 µM. It also gave a TGI [8] of 2.98 µM, a GI50 [9] of 1.73 µM and a TGI [9] of 3.16 µM. For the same compound, the GI50 [10] was 1.66 µM, the TGI [10] was 3.02 µM and the GI50 [11] was 2.21 µM. For the same compound, the TGI [11] was 5.11 µM, the GI50 [12] was 1.48 µM and the TGI [12] was 2.79 µM. For the same compound, the GI50 [13] was 1.73 µM, the TGI [13] was 3.42 µM and the GI50 [14] was 2.11 µM. It also gave a TGI [14] of 5.61 µM, a GI50 [15] of 1.35 µM and a TGI [15] of 2.81 µM. For the same compound, the GI50 [16] was 1.77 µM, the TGI [16] was 4.52 µM and the GI50 [17] was 1.7 µM. For the same compound, the TGI [17] was 3.07 µM, the GI50 [18] was 1.62 µM and the TGI [18] was 3.01 µM. For the same compound, the GI50 [19] was 1.64 µM, the TGI [19] was 3.23 µM and the GI50 [20] was 1.73 µM. It also gave a TGI [20] of 3.23 µM, a GI50 [21] of 2.55 µM and a TGI [21] of 8.39 µM. It also gave a GI50 [22] of 1.62 µM, a TGI [22] of 3.12 µM and a GI50 [23] of 0.649 µM. For the same compound, the TGI [23] was 4.19 µM, the GI50 [24] was 1.55 µM and the TGI [24] was 3.1 µM. The GI50 [25] was 1.18 µM, the TGI [25] was 2.6 µM and the GI50 [26] was 1.73 µM. The TGI [26] was 3.13 µM, the GI50 [27] was 1.82 µM and the TGI [27] was 3.67 µM. The GI50 [28] was 2.05 µM, the TGI [28] was 5.45 µM and the GI50 [29] was 1.84 µM. For the same compound, the TGI [29] was 3.69 µM, the GI50 [30] was 1.69 µM and the TGI [30] was 3.15 µM. It also gave a GI50 [31] of 9.79 µM, a TGI [31] of 22 µM and a GI50 [32] of 1.59 µM. It also gave a TGI [32] of 3.21 µM, a GI50 [33] of 3.41 µM and a TGI [33] of 15.6 µM. The GI50 [34] was 1.78 µM, the TGI [34] was 3.44 µM and the GI50 [35] was 1.41 µM. For the same compound, the TGI [35] was 2.73 µM, the GI50 [36] was 1.79 µM and the TGI [36] was 3.61 µM. For the same compound, the GI50 [37] was 1.68 µM, the TGI [37] was 3.25 µM and the GI50 [38] was 1.77 µM. For the same compound, the TGI [38] was 3.21 µM, the GI50 [39] was 2.5 µM and the TGI [39] was 6.5 µM. The GI50 [40] was 1.73 µM, the TGI [40] was 3.44 µM and the GI50 [41] was 1.43 µM. The TGI [41] was 3.1 µM, the GI50 [42] was 1.35 µM and the TGI [42] was 3.59 µM. For the same compound, the GI50 [43] was 1.88 µM, the TGI [43] was 3.75 µM and the GI50 [44] was 1.14 µM. The TGI [44] was 2.4 µM, the GI50 [45] was 1.73 µM and the TGI [45] was 3.43 µM. It also gave a GI50 [46] of 1.58 µM, a TGI [46] of 3.03 µM and a GI50 [47] of 1.79 µM. For the same compound, the TGI [47] was 3.38 µM, the GI50 [48] was 1.9 µM and the TGI [48] was 3.86 µM. It also gave a GI50 [49] of 1.81 µM, a TGI [49] of 3.53 µM and a GI50 [50] of 1.98 µM. The TGI [50] was 6.17 µM, the GI50 [51] was 1.75 µM and the TGI [51] was 3.6 µM. For the same compound, the GI50 [52] was 1.52 µM, the TGI [52] was 2.89 µM and the GI50 [53] was 1.85 µM. For the same compound, the TGI [53] was 4.09 µM, the GI50 [54] was 1.66 µM and the TGI [54] was 3.16 µM. The GI50 [55] was 1.77 µM, the TGI [55] was 3.82 µM and the GI50 [56] was 1.86 µM. For the same compound, the TGI [56] was 3.32 µM, the GI50 [57] was 1.41 µM and the TGI [57] was 2.7 µM. The GI50 [58] was 1.65 µM, the TGI [58] was 3.29 µM and the GI50 [59] was 1.74 µM. For the same compound, the TGI [59] was 3.39 µM.
